Assay results taken from PMC3530194 (Bioorganic & medicinal chemistry letters, 2012).

What was measured:
[1] = assay type: in vitro ADME, bovine
LS174T indicator cells = assay type: cell-based; details: human cells (LS174T), over the first 12 hours; Fig. 3A
[2] = cited from earlier work
[3] = assay type: in vitro ADME, bovine; details: after 24 hours of serum pretreatment; Fig. 2D
[4] = tested on: hereditary inclusion body myopathy mouse model; details: cited from earlier work
[5] = Fig. 2E; for surface expression of azido-modified sialic acids: after 24 hours of FBS pre-treatment; for loss of surface azido-sialic acid signal: first four hours of FBS treatment

Structure (SMILES)	increased sialic acid production compared among analogs (LS174T indicator cells)	surface expression of azido-modified sialic acids [5]	loss of surface azido-sialic acid signal [5]	further results
CCCC(=O)OC1O[C@H](CO)[C@@H](OC(=O)CCC)[C@H](OC(=O)CCC)[C@@H]1NC(C)=O (stereo partly shown) [1,3,4-O-Bu3ManNAc]	statistically identical levels	–	–	reduction in analog-enhanced sialic acid production ([1]; after four hours of serum treatment, Fig. 2C): only a relatively minor reduction; side effects such as cytotoxicity [2]: negligible
CCCC(=O)OC[C@H]1OC(O)[C@@H](NC(C)=O)[C@@H](OC(=O)CCC)[C@@H]1OC(=O)CCC (stereo partly shown) [3,4,6-O-Bu3ManNAc]	statistically identical levels	–	–	loss of analog-enhanced cell growth inhibition [3]: complete reversal
CC(=O)N[C@@H]1C(OC(C)=O)O[C@H](COC(C)=O)[C@@H](OC(C)=O)[C@@H]1OC(C)=O (stereo partly shown) [Ac4ManNAc, reference compound]	–	–	–	serum inactivation of analog, read as sialic acid production in indicator cells ([1]; FBS (100% serum) pre-incubation, Fig. 2A): refractory to serum inactivation; time of peak sialic acid production after administration [4]: peaked as soon as four hours after administration
CC(=O)OC[C@H]1OC(OC(C)=O)[C@@H](NC(=O)CN=[N+]=[N-])[C@@H](OC(C)=O)[C@@H]1OC(C)=O (stereo partly shown) [Ac4ManNAz, reference compound]	–	reduction, but not complete reversal	refractory to a loss of signal	–
CCCC(=O)OCC1OC(OC(=O)CCC)C(NC(C)=O)[C@@H](OC(=O)CCC)[C@@H]1OC(=O)CCC (stereo partly shown) [Bu4ManNAc]	statistically identical levels	–	–	reversion of analog-enhanced sialic acid production in indicator cells ([1]; lower concentrations of FBS (10% or 25%), Fig. 2B): did not result in a statistically significant reversion
CCCC(=O)OC[C@H]1OC(OC(=O)CCC)[C@@H](NC(=O)CN=[N+]=[N-])[C@@H](OC(=O)CCC)[C@@H]1OC(=O)CCC (stereo partly shown) [Bu4ManNAz]	–	reduction, but not complete reversal	refractory to a loss of signal	–
